Consider 2 compounds from patent publication US20220105135A1, “METHODS AND COMPOSITIONS FOR THE MODULATION OF OPIOID SIGNALING IN THE TUMOR MICROENVIRONMENT” (The Broad Institute, Inc., priority 2020, published 2022).

One data set addresses trypsin (Homo sapiens, UniProt P07477). To be noted: cited from earlier work.
Another data set concerns the target T1, papain (Carica papaya, UniProt P00784).
T1 sequence (P00784 134-345): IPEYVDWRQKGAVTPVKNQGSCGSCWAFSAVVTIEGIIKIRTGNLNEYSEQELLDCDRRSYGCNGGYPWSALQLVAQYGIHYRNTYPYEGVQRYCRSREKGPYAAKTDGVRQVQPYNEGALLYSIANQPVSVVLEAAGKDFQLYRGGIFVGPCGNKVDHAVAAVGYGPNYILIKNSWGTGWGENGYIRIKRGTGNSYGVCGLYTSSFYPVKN
To be noted: cited from earlier work.

The target in the next data set is pepsin (Homo sapiens, UniProt P0DJD8). The conditions noted are these: cited from earlier work.
In a further data set the test system is elastase. The conditions noted are these: cited from earlier work.
The target of the next data set is chymotrypsin (Bos taurus, UniProt P00766). To be noted: cited from earlier work.
Another data set concerns fungi. To be noted: at 100 pg/ml; cited from earlier work.
The conditions of data set [1]: intraperitoneal injection of 300 mg/kg to mice; cited from earlier work.
For another data set, the target named is aminopeptidase B (Homo sapiens, UniProt Q9H4A4). To be noted: cited from earlier work.
Another data set deals with aminopeptidase A (Homo sapiens, UniProt Q07075). The conditions noted are these: cited from earlier work.
A further data set concerns the target T2, thermolysin (Bacillus thermoproteolyticus, UniProt P00800).
T2 sequence (P00800 233-548): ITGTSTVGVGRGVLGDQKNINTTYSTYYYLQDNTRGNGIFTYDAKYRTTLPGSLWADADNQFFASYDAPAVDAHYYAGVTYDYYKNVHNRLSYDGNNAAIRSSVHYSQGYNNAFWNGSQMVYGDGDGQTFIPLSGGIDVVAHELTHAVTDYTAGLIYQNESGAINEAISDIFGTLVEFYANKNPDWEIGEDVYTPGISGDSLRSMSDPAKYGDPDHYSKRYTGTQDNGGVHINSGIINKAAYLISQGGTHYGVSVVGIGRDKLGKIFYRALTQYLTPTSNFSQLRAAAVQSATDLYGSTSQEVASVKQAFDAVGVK
The conditions noted are these: cited from earlier work.

The subject of another data set is bacteria. Further details: dose or concentration left out as unconfirmed. The conditions noted are these: cited from earlier work.
The subject of a further data set is leucine aminopeptidase. The conditions noted are these: cited from earlier work.
The next data set has as its system CD8+ T cells. Put plainly: In vitro stimulation of CD8+ T cells with MENK peptide. The conditions noted are these: for coinhibitory receptors / checkpoints expression on T cells: MENK stimulation. The class given is cell-based. From the text: FIG. 55A. […] FIG. 55B. […] FIG. 55C. […] FIG. 55D.
Applicants determined the effect of PENK-OGFR signaling on tumor growth and anti-tumor immunity.

Setting [2] is: MENK vs control, in vitro, listed as Menk.

Sequence of pepsin (P0DJD8 63-388): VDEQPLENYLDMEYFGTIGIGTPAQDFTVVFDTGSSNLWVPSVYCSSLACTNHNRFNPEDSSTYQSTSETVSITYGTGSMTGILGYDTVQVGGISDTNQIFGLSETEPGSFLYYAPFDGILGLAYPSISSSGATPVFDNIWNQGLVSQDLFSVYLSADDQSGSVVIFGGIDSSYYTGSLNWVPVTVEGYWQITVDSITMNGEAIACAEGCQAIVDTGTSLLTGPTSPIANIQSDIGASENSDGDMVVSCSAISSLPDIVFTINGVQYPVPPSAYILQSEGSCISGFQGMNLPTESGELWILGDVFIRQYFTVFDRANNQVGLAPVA
Sequence of aminopeptidase B (Q9H4A4 whole entry, species assumed): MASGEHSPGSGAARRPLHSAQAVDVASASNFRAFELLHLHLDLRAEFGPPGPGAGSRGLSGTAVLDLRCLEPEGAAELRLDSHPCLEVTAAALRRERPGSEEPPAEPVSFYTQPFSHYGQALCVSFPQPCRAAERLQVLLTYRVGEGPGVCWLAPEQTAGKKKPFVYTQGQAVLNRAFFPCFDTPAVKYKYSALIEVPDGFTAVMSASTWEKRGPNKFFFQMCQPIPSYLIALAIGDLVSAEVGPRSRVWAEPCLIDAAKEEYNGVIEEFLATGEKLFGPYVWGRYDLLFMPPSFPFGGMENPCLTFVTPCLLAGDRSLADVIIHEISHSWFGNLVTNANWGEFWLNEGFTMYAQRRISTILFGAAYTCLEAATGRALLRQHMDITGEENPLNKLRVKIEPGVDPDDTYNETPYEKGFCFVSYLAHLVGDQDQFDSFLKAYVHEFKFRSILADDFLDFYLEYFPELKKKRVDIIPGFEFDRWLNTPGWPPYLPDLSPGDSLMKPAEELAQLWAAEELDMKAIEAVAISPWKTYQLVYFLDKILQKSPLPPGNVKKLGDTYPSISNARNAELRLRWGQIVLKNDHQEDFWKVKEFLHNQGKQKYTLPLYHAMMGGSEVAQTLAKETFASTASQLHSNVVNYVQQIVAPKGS
Sequence of aminopeptidase A (Q07075 whole entry, species assumed): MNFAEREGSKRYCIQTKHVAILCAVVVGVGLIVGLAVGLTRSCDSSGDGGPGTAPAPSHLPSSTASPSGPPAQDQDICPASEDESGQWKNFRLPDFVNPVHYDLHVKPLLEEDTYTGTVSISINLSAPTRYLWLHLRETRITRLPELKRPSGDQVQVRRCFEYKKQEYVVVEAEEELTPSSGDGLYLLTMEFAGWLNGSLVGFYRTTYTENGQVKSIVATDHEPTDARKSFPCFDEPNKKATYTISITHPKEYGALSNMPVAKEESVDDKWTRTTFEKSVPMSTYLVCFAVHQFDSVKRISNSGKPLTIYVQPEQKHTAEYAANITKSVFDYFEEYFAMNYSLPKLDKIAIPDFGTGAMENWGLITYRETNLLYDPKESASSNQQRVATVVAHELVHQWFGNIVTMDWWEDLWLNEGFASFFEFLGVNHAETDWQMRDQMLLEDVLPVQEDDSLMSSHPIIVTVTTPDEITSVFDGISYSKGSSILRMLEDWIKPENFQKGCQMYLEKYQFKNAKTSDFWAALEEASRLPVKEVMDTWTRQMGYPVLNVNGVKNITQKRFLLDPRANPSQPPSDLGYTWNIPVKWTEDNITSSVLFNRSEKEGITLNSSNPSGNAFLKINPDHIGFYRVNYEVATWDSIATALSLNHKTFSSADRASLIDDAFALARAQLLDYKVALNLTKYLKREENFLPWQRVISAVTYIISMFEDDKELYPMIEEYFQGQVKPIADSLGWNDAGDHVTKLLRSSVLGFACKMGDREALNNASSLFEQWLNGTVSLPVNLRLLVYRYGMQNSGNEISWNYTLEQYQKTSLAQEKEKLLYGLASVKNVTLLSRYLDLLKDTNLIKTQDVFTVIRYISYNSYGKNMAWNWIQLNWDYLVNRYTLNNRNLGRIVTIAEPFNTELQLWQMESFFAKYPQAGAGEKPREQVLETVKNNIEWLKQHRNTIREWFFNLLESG

`CC(C)C[C@H](NC(=O)[C@@H](O)[C@H](N)Cc1ccccc1)C(=O)O` [Bestatin, ubenimex (bestatin)]: the inhibition of trypsin result at trypsin is on record as “does not show any inhibition”. Further, the inhibition of papain result on papain was “does not show any inhibition”. Besides, at pepsin, the inhibition of pepsin entry was “does not show any inhibition”. The inhibition of elastase result in the data set with elastase is “does not show any inhibition”. For the same compound, on chymotrypsin, the inhibition of chymotrypsin entry is recorded as “does not show any inhibition”. Also, the antifungal activity result with fungi is reported as “no antifungal”. Moreover, in data set [1], the “toxicity (death)” value is “no death”. Also, the “inhibition of aminopeptidase B” value on aminopeptidase B was “specific inhibitor”. Further, on aminopeptidase A, the “inhibition of aminopeptidase A” value is on record as “does not show any inhibition”. In addition, the inhibition of thermolysin entry at thermolysin is recorded as “does not show any inhibition”. Also, in the data set on bacteria, the antibacterial activity entry is “no antibacterial”. The “inhibition of leucine aminopeptidase” value with leucine aminopeptidase is “specific inhibitor”.
Take “[Met]enkephalin (YGGFM) [MENK, enkephalin peptide produced by proteolytic cleavage of PENK]”: the “coinhibitory receptors / checkpoints expression on T cells” value with CD8+ T cells is recorded as “increases”. The “coinhibitory receptors / checkpoints expression on T cells” value in the data set with CD8+ T cells (listed as Menk) is “increased expression of several checkpoints”. Also, in the data set on CD8+ T cells (MENK vs control, in vitro), the CD160 result is “increased”, the IL-2 entry is listed as “decreased”, the PD1 result is “increased” and the “PD1+ TIM3+CD8+ T cells” value was “increased”. In the data set on CD8+ T cells (MENK vs control, in vitro), the TIM3 result is reported as “increased” and the proliferation result is “decreased”. In addition, in the data set with CD8+ T cells (setting [2]), the IL-2 result is “dampened” and the proliferation entry is recorded as “some reduction”.
